For one data set, the target named is T1, P2X7 receptor (Homo sapiens, UniProt Q99572).
T1 construct: host or cells: THP-1 cells differentiated with LPS and IFN-γ
T1 sequence (Q99572 1-595): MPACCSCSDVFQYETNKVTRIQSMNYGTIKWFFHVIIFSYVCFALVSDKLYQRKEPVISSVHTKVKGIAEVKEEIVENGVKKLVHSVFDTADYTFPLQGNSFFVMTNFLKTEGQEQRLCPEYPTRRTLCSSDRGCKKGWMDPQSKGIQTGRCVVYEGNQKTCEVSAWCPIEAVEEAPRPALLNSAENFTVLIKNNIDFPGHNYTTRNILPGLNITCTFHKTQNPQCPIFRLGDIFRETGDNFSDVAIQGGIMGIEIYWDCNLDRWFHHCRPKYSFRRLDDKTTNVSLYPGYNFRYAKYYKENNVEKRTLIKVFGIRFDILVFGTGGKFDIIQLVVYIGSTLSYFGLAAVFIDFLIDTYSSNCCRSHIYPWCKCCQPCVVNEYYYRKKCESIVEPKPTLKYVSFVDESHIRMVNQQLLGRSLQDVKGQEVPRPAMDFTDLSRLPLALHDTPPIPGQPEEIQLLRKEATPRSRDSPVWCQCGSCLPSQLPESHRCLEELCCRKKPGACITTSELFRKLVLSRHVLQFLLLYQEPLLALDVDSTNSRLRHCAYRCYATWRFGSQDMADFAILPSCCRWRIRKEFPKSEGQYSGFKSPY
The experiment in a line: IL-1β release assay in differentiated THP-1 cells (Example 9). The data set is classed as cell-based. As to conditions: THP-1 cells differentiated with LPS and IFN-γ; 30 min pretreatment; BzATP 250 uM; IL-1β by ELISA. How it is done:
THP-1 cells (ATCC Cat #285-IF-100) are plated in 96 well plates at a concentration of 200,000 cells per well and allowed to differentiate in RPMI-1640 media (ATCC Cat #30-2001) containing 10% FBS, 100 IU/mL penicillin, 100 ug/mL streptomycin, 100 ng/mL LPS and 100 ng/mL IFN-γ for 16 hours. Following differentiation, the cells are treated for an additional 2 hours in RPMI-1640 media containing 100 IU/mL penicillin, 100 ug/mL streptomycin and fresh LPS at 100 ng/mL. The cells are then pretreated for 30 minutes with the compound of interest at the appropriate concentration in RPMI media containing 100 IU/mL penicillin, 100 ug/mL streptomycin. Following the pretreatment 2′,3′-O-(4-benzoylbenzoyl)-adenosine 5′-triphosphate (Sigma Aldrich Cat # B6396) is added to a final concentration of 250 uM, and the cells are incubated for an additional 45 minutes. 30 uL of cell supernatant is then collected and IL-1β levels are determined via ELISA (R&D systems Cat. # HSLB50) according to manufacturer's recommendations using a Tecan Safire plate reader. Background adjusted IL-1β levels of drug treated and non-treated cells are used to calculate the percent inhibition.
The following compounds have been or can be prepared according to the synthetic methods described herein for example, methods A-AA1. The compounds set forth in Table 1 were tested for activity in a cellular model as described herein. Specifically, cells were pretreated with differing amounts of the compound under test and released IL-1β determined as in Example 9, above. Measurements were made and IC50 values, presented in Table 1, below, were determined by fitting the data to a four parameter logistic equation using GraphPad Prism software (GraphPad Software, Inc). The equation may be expressed by the following formula: Y=Bottom+(Top−Bottom)/(1+10^((Log EC50−X)*HillSlope)) where X is the logarithm of concentration, Y is the response and Y starts at Bottom and goes to Top with a sigmoid shape.

The nature of data set [1]: Half-life in human liver microsomes (HLM). The data set is classed as in vitro ADME. The note with it: human liver microsomes 0.78 mg/mL, 1 μM compound, NADPH, 37° C.; for half-life at 1 μM: pH 7.4. A general note: Microsomes from liver hold many membrane-bound enzymes, among them those of drug oxidation.
Procedure: Half-Life in Human Liver Microsomes (HLM)
Test compounds (1 μM) are incubated with 3.3 mM MgCl2 and 0.78 mg/mL HLM (HL101) in 100 mM potassium phosphate buffer (pH 7.4) at 37° C. on the 96-deep well plate. The reaction mixture is split into two groups, a non-P450 and a P450 group. NADPH is only added to the reaction mixture of the P450 group. An aliquot of samples of P450 group is collected at 0, 10, 30, and 60 min time point, where 0 min time point indicated the time when NADPH is added into the reaction mixture of P450 group. […] Collected aliquots are extracted with acetonitrile solution containing an internal standard. […] The compound concentration in supernatant is measured by LC/MS/MS system.
The half-life value is obtained by plotting the natural logarithm of the peak area ratio of compounds/internal standard versus time. The slope of the line of best fit through the points yields the rate of metabolism (k). This is converted to a half-life value using following equations: Half-life=ln 2/k
The nature of data set [2]: Plasma protein binding by equilibrium dialysis, human plasma. The class given is in vitro ADME. As to conditions: pH 7.4, equilibrium dialysis 16 hr at 37° C., % Bound. How it is done:
The plasma protein binding of compounds of invention is measured in human and rat plasma, respectively. A stock solution of the tested compound is prepared in 1 mg/mL in DMSO solution. The stock solution is spiked into the blank plasma to get a final compound concentration at 1 μg/mL for testing. Equilibrium dialysis (The equilibrium dialyzer-96TM MWCO 5K Daltons, Harvard Apparatus) method is used for the testing purpose.
The compound spiked plasma (at […]) and phosphate buffer (0.1 M, pH 7.4), 200 μl each, are added into the opposite sides of the membrane in a 96-well equilibrium dialyzer, respectively. The dialyzer plate is covered and incubated overnight (16 hr) at 37° C. in the 8-plate rotor incubator (Big Shot III 8-plate rotor, Harvard Apparatus). Aliquots (100 μL) are taken from the plasma and the buffer compartments, respectively. The matrix effects are eliminated by adding the same volume of blank plasma into the samples from buffer compartments and adding the same volume of phosphate buffer into the samples from plasma compartments. The samples are extracted by using the regular (3:1) protein precipitation extraction procedure (acetonitrile with internal standard). The supernatants are taken for LC/MS/MS analysis. The percentage of plasma-protein binding can be calculated by using the following method: % Free=[Free Drug/Total Drug]*100=[(Peak Area)buffer/(Peak Area)plasma]*100 % Bound=100−% Free.
For the purpose of Table 4, the plasma protein binding of each compound is expressed as follows: […]
For orientation: Equilibrium dialysis compares concentrations on both sides of a semipermeable membrane.

The results in this text go back to patent publication US8093265B2, “Bicycloheteroaryl compounds as P2X7 modulators and uses thereof” (Renovis, Inc., priority 2007, dated 2012).

The structures appear in SMILES notation.

One may read the IC50 as the concentration needed to halve the response being measured. As usually defined, the fraction unbound is the share of the substance not bound to proteins or other matrix. As usually defined, the half-life is how long it takes for the measured level to halve. A lower half-life goes with rapid decline.

Turning to `C[C@H](C(N)=O)n1ccc2c(NC(=O)Cc3ccc(C(F)(F)F)cc3)c(Cl)ccc2c1=O` [Compound 3, (R)-2-{6-Chloro-1-oxo-5-[2-(4-trifluoromethyl-phenyl)-acetylamino]-1H-isoquinolin-2-yl}-propionamide], the IC50 at P2X7 receptor worked out at 2 nM. Also, the “Half Life” value in data set [1] worked out at 3.3 h.
On the same counts, the results for `C[C@H](CO)n1ccc2c(NC(=O)Cc3ccc(Cl)c(F)c3)c(Cl)ccc2c1=O` [Compound 15, 2-(4-Chloro-3-fluoro-phenyl)-N-[6-chloro-2-((R)-2-hydroxy-1-methyl-ethyl)-1-oxo-1,2-dihydro-isoquinolin-5-yl]-acetamide] are 6 nM and 1.3 h.
`Cc1ccc2c(=O)n([C@H](C)CO)ccc2c1NC(=O)Cc1ccc(F)c(C(F)(F)F)c1` [Compound 22, 2-(4-Fluoro-3-trifluoromethyl-phenyl)-N-[2-((R)-2-hydroxy-1-methyl-ethyl)-6-methyl-1-oxo-1,2-dihydro-isoquinolin-5-yl]-acetamide]: on P2X7 receptor, the IC50 amounted to 0.7 nM. In data set [2], this compound came in with a fraction unbound at 16 hr, 1 μg/mL of less than 0.1.
As for `C[C@H](CO)n1ccc2c(C(=O)NCc3cccc(C(F)(F)F)c3)c(Cl)ccc2c1=O` [Compound 44, 6-Chloro-2-((R)-2-hydroxy-1-methyl-ethyl)-1-oxo-1,2-dihydro-isoquinoline-5-carboxylic acid 3-trifluoromethyl-benzylamide], on P2X7 receptor, the IC50 was 10 nM. Besides, in data set [1], the half-life at 1 μM is 1.1 h.
In the case of `C[C@H](CO)n1ccc2c(C(=O)NCc3ccc(Cl)c(F)c3)c(Cl)ccc2c1=O` [Compound 45, 6-Chloro-2-((R)-2-hydroxy-1-methyl-ethyl)-1-oxo-1,2-dihydro-isoquinoline-5-carboxylic acid 4-chloro-3-fluoro-benzylamide], the IC50 on P2X7 receptor was found to be 13 nM. Besides, in data set [1], the half-life at 1 μM is 1.6 h.
On the same counts, the results for `C[C@H](CO)n1ccc2c(C(=O)NCC3(O)CCCCCC3)c(Cl)ccc2c1=O` [Compound 47, 6-Chloro-2-((R)-2-hydroxy-1-methyl-ethyl)-1-oxo-1,2-dihydro-isoquinoline-5-carboxylic acid (1-hydroxy-cycloheptylmethyl)-amide] are 0.8 nM and 0.4 h.
`Cc1ccc2c(=O)n([C@H](C)CO)ccc2c1C(=O)NCC1(O)CCCCCC1` [Compound 52, 2-((R)-2-Hydroxy-1-methyl-ethyl)-6-methyl-1-oxo-1,2-dihydro-isoquinoline-5-carboxylic acid (1-hydroxy-cycloheptylmethyl)-amide]: the IC50 on P2X7 receptor amounted to 4 nM.
On the same count and under the same terms, to `C[C@H](CO)n1ccc2c(C(=O)NCC3(O)CC4CCC3C4)c(Cl)ccc2c1=O` (stereo partly drawn) [Compound 53, 6-Chloro-2-((R)-2-hydroxy-1-methyl-ethyl)-1-oxo-1,2-dihydro-isoquinoline-5-carboxylic acid (2-hydroxy-bicyclo[2.2.1]hept-2-ylmethyl)-amide] belongs 532 nM.
In the case of `C[C@H](CO)n1ccc2c(C(=O)NCC3(O)CCC(C)(C)CC3)c(Cl)ccc2c1=O` [Compound 54, (R)-6-chloro-N-((1-hydroxy-4,4-dimethylcyclohexyl)methyl)-2-(1-hydroxypropan-2-yl)-1-oxo-1,2-dihydroisoquinoline-5-carboxamide], on P2X7 receptor, the IC50 stood at 1 nM. Further, the half-life at 1 μM in data set [1] was 0.3 h.
Take `C[C@H](CO)n1ccc2c(C(=O)NCC3(O)CCCC(C)(C)C3)c(Cl)ccc2c1=O` (stereo partly drawn) [Compound 55, 6-Chloro-2-((R)-2-hydroxy-1-methyl-ethyl)-1-oxo-1,2-dihydro-isoquinoline-5-carboxylic acid(1-hydroxy-3,3-dimethyl-cyclohexylmethyl)-amide]: the IC50 on P2X7 receptor came out at 1 nM.
Same read-out and setting: to `C[C@H](CO)n1ccc2c(C(=O)NCC3(O)CCCCC3)c(Cl)ccc2c1=O` [Compound 57, 6-Chloro-2-((R)-2-hydroxy-1-methyl-ethyl)-1-oxo-1,2-dihydro-isoquinoline-5-carboxylic acid (1-hydroxy-cyclohexylmethyl)-amide] belongs 5 nM; to `Cc1ccc2c(=O)n([C@H](C)CN)ccc2c1NC(=O)Cc1ccc(C(F)(F)F)c(F)c1` [Compound 58, N-[2-((R)-2-Amino-1-methyl-ethyl)-6-methyl-1-oxo-1,2-dihydro-isoquinolin-5-yl]-2-(3-fluoro-4-trifluoromethyl-phenyl)-acetamide], 0.01 nM.
On the same count and under the same terms, to `CNC[C@@H](C)n1ccc2c(NC(=O)Cc3ccc(C(F)(F)F)c(F)c3)c(C)ccc2c1=O` [Compound 59, 2-(3-Fluoro-4-trifluoromethyl-phenyl)-N-[6-methyl-2-((R)-1-methyl-2-methylamino-ethyl)-1-oxo-1,2-dihydro-isoquinolin-5-yl]-acetamide] belongs 2 nM.
Still for that read-out and setting: to `Cc1ccc2c(=O)n([C@H](C)CN3CCNCC3)ccc2c1NC(=O)Cc1ccc(C(F)(F)F)c(F)c1` [Compound 60, 2-(3-Fluoro-4-trifluoromethyl-phenyl)-N-[6-methyl-2-((R)-1-methyl-2-piperazin-1-yl-ethyl)-1-oxo-1,2-dihydro-isoquinolin-5-yl]-acetamide] belongs 1 nM.
On to `C[C@H](CO)n1ccc2c(C(=O)NCC3CCC(F)(F)CC3)c(Cl)ccc2c1=O` [Compound 61, (R)-6-Chloro-N-((4,4-difluorocyclohexyl)methyl)-2-(1-hydroxypropan-2-yl)-1-oxo-1,2-dihydroisoquinoline-5-carboxamide], for which the IC50 on P2X7 receptor was found to be 5 nM. Also, the fraction unbound at 16 hr, 1 μg/mL in data set [2] lay within 0.1 to 0.24.
Consider `Cc1ccc2c(=O)n(C(CO)CO)ccc2c1NC(=O)Cc1ccc(C(F)(F)F)c(F)c1` [Compound 62, 2-(3-Fluoro-4-trifluoromethyl-phenyl)-N-[2-(2-hydroxy-1-hydroxymethyl-ethyl)-6-methyl-1-oxo-1,2-dihydro-isoquinolin-5-yl]-acetamide], for which, at P2X7 receptor, the IC50 was determined as 30 nM.
Turning to `C[C@H](CO)n1ccc2c(C(=O)NCC3(O)CCC4(CC3)CC4)c(Cl)ccc2c1=O` [Compound 63, 6-Chloro-2-((R)-1-hydroxypropan-2-yl)-N-((6-hydroxyspiro[2.5]octan-6-yl)methyl)-1-oxo-1,2-dihydroisoquinoline-5-carboxamide], the IC50 on P2X7 receptor is 0.6 nM. The compound further came in with a fraction unbound at 16 hr, 1 μg/mL in data set [2] of 0.25 to 0.49.
`Cc1ccc2c(=O)n([C@H](C)CN3CC[C@H](N)C3)ccc2c1NC(=O)Cc1ccc(C(F)(F)F)c(F)c1` [Compound 66]: the IC50 at P2X7 receptor is 5 nM.
Turning to `C[C@H](CO)n1ccc2c(C(=O)NCC3(O)CCC(F)CC3)c(Cl)ccc2c1=O` (stereo partly shown) [Compound 69], the IC50 at P2X7 receptor was found to be 6 nM.
